The numbers were not newly measured in US11554108B2, “Methods and compositions for treating cutaneous fungal infections” (Xeropedix, Inc., priority 2016, dated 2023), which cites them from elsewhere.

Values after ≈ are worked out from the molar mass of the structure shown. Read-outs that look alike come from different tables or passages of the source.

Series [1] addresses transient receptor potential vanilloid 1 (TRPV1) cation channel (Homo sapiens, UniProt Q8NER1). The note with it: lowered from approximately 42° C.
Assay in series [2]: not given
This is another data set of the same source.

transient receptor potential vanilloid 1 (TRPV1) cation channel, sequence (Q8NER1 whole entry): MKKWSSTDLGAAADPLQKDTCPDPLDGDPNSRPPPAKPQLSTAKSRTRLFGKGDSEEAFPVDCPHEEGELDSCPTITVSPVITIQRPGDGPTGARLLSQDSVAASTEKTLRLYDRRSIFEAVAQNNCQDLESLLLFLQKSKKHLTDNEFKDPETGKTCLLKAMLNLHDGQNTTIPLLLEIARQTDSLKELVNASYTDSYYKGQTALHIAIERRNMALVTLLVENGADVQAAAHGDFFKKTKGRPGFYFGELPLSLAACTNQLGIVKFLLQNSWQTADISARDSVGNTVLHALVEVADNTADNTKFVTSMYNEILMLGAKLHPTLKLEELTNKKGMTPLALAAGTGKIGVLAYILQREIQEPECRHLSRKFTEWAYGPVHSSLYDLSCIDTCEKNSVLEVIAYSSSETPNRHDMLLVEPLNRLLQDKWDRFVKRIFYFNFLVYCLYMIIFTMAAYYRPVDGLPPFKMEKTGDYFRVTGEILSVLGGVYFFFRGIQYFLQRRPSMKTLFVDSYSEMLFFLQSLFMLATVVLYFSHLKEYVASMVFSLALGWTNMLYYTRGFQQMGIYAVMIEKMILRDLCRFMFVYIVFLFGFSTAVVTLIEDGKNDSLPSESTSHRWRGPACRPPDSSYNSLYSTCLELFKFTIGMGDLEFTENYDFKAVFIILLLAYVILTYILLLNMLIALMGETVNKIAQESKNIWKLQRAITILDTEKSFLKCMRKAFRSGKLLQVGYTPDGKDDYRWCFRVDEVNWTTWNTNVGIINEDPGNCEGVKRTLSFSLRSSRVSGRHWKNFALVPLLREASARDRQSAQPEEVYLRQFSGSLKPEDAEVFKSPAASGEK

For `CCO` [Ethanol], the “threshold temperature at which TRPV1 signals excessive heat” value in series [1] was 34 °C.
For the molecule `CN(C/C=C/C#CC(C)(C)C)Cc1cccc2ccccc12` [terbinafine], the “rate of absorption, maximum concentration, and half-life in the skin” value (ethanol gel compared to a standard cream formulation) is on record as “improve”. Besides, the percutaneous terbinafine absorption entry (in vivo, ethanol solution compared to isopropyl myristate solution) was “enhanced”. For the same molecule, the “minimum fungicidal concentration against T. rubrum” value with T. rubrum was 3 ng/mL (≈ 0.0103 µM). Moreover, the stratum corneum concentration in series [2] (24 hours after a single application of 1% terbinafine cream) was 37 ng/cm^2. Besides, in series [2] (24 hours after application of 1% terbinafine cream, converted with 1 ng/cm^2=4 μg/ml), the “concentration of terbinafine in the stratum corneum” value is “approximately 148 μg/ml”.
In the case of `[Cl][Al]([Cl])[Cl]` [aluminum chloride], in the series with tinea pedis (30% aluminum chloride solution), the “reduction of unpleasant symptoms of tinea pedis” value is on record as “effective at reducing unpleasant symptoms” and the “resolution of the infection” value is “did not resolve the infection entirely”. Further, the “inhibition of T. mentagrophytes in an in vitro MIC test” value with T. mentagrophytes (10% aluminum chloride, equal to 100,000 μg/ml) is listed as “no inhibition”. The “inhibition of T. mentagrophytes in an in vitro MIC test” value with T. mentagrophytes (20% aluminum chloride, equal to 200,000 μg/ml) was “inhibited the fungus”.
As to aluminum chlorohydrate, the “effectiveness against tinea pedis relative to aluminum chloride” value with tinea pedis (in vivo) is “less effective than aluminum chloride”.
